# In ChEMBL document CHEMBL1125092, “Nonneurotoxic tetralin and indan analogues of 3,4-(methylenedioxy)amphetamine (MDA)” (J Med Chem, 1990):
# Key:
# [1] = test system: Rattus norvegicus; experiment: Hallucinogenic property was determined in groups of MDMA trained rats and percentage of animals disrupted was reported at a dose 2.2 (umol/kg), (number of animals =9); assay type: functional
# [2] = test system: Rattus norvegicus; experiment: Hallucinogenic property was determined in groups of LSD trained rats and percentage of animals disrupted was reported at a dose 8.78 (umol/kg), (number of animals = 16); assay type: functional
# [3] = test system: Rattus norvegicus; experiment: Monoamine levels in rat brain were evaluated after subcutaneous administration of 40 mg/kg for HVA; assay type: functional
# [4] = Binding affinity was determined towards serotonin uptake site in presence of [3H]paroxetine radioligand in rat brain cortical homogenate; assay type: tissue-based
# [5] = test system: Rattus norvegicus; experiment: Monoamine levels in at hippocampus were evaluated after subcutaneous administration of 40 mg/kg for NE; assay type: functional
# [6] = test system: Rattus norvegicus; experiment: Tested for stimulus generation in rats trained to discriminate +/-MDMA from saline at 8.78 (umol/kg), (number of animals = 8); assay type: functional
# [7] = test system: Rattus norvegicus; experiment: Hallucinogenic property was determined in groups of LSD trained rats and percentage of animals disrupted was reported at a dose 13.18 (umol/kg),(number of animals = 15); assay type: functional
# [8] = species on record: Rattus norvegicus; experiment: Compounds were evaluated for binding of [3H]paroxetine to rat hippocampal homogenate and number of binding sites (Bmax) for serotonin; assay type: tissue-based; settings: Hippocampus
# [9] = test system: Rattus norvegicus; experiment: Monoamine levels in rat brain were evaluated after subcutaneous administration of 40 mg/kg for NE; assay type: functional
# [10] = test system: Rattus norvegicus; experiment: Hallucinogenic property was determined in groups of LSD trained rats and percentage of animals disrupted was reported at a dose 2.2 (umol/kg), (number of animals = 15); assay type: functional
# [11] = test system: Rattus norvegicus; experiment: Tested for stimulus generation in rats trained to discriminate LSD from saline at a dose 4.39 (umol/kg),(number of animals =11); assay type: functional
# [12] = test system: Rattus norvegicus; experiment: Tested for stimulus generation in rats trained to discriminate +/-MDMA from saline at 4.39 (umol/kg),(number of animals = 9); assay type: functional
# [13] = test system: Rattus norvegicus; experiment: Monoamine levels in rat hippocampus were evaluated after subcutaneous administration of 40 mg/kg for 5-HT; assay type: functional
# [14] = test system: Rattus norvegicus; experiment: Monoamine levels in rat brain were evaluated after subcutaneous administration of 40 mg/kg for 5-HIAA; assay type: functional
# [15] = test system: Rattus norvegicus; experiment: Monoamine levels in rat brain were evaluated after subcutaneous administration of 40 mg/kg for DA; assay type: functional
# [16] = test system: Rattus norvegicus; experiment: Tested for stimulus generation in rats trained to discriminate LSD from saline at a dose 2.2 (umol/kg), (number of animals = 15); assay type: functional
# [17] = Binding affinity was determined towards serotonin uptake site in presence of [3H]paroxetine radioligand in rat hippocampal homogenate; assay type: tissue-based, Hippocampus
# [18] = test system: Rattus norvegicus; experiment: Tested for stimulus generation in rats trained to discriminate +/-MDMA from saline at 2.2 (umol/kg), (number of animals =9); assay type: functional
# [19] = test system: Rattus norvegicus; experiment: Monoamine levels in rat brain were evaluated after subcutaneous administration of 40 mg/kg for 5-HT; assay type: functional
# [20] = test system: Rattus norvegicus; experiment: Hallucinogenic property was determined in groups of LSD trained rats and percentage of animals disrupted was reported at a dose 17.57(umol/kg), (number of animals =21); assay type: functional
# [21] = test system: Rattus norvegicus; experiment: Monoamine levels in rat brain were evaluated after subcutaneous administration of 40 mg/kg for DOPAC; assay type: functional
# [22] = test system: Rattus norvegicus; experiment: Hallucinogenic property was determined in groups of MDMA trained rats and percentage of animals disrupted was reported at a dose 17.57(umol/kg), (number of animals =11); assay type: functional
# [23] = test system: Rattus norvegicus; experiment: Hallucinogenic property was determined in groups of MDMA trained rats and percentage of animals disrupted was reported at a dose 4.39 (umol/kg),(number of animals = 9); assay type: functional
# [24] = test system: Rattus norvegicus; experiment: Hallucinogenic property was determined in groups of LSD trained rats and percentage of animals disrupted was reported at 4.39 (umol/kg),(number of animals =11); assay type: functional
# [25] = test system: Rattus norvegicus; experiment: Tested for stimulus generation in rats trained to discriminate +/-MDMA from saline at 17.57 (umol/kg), (number of animals =11); assay type: functional
# [26] = species on record: Rattus norvegicus; experiment: Compounds were evaluated for binding of [3H]paroxetine to rat brain cortical homogenate and number of binding sites (Bmax) for serotonin; assay type: tissue-based
# [27] = test system: Rattus norvegicus; experiment: Tested for stimulus generation in rats trained to discriminate LSD from saline at a dose 8.78 (umol/kg), (number of animals = 16); assay type: functional
# [28] = test system: Rattus norvegicus; experiment: Hallucinogenic property was determined in groups of MDMA trained rats and percentage of animals disrupted was reported at a dose 8.78 (umol/kg), (number of animals = 8); assay type: functional
# [29] = test system: Rattus norvegicus; experiment: Monoamine levels in rat hippocampus were evaluated after subcutaneous administration of 40 mg/kg for 5-HIAA; assay type: functional
# [30] = test system: Rattus norvegicus; experiment: Tested for stimulus generation in rats trained to discriminate +/-MDMA from saline at 9.36 (umol/kg), (number of animals = 9); assay type: functional
# [31] = test system: Rattus norvegicus; experiment: Tested for stimulus generation in rats trained to discriminate +/-MDMA from saline at 4.68 (umol/kg), (number of animals = 10); assay type: functional
# [32] = test system: Rattus norvegicus; experiment: Hallucinogenic property was determined in groups of LSD trained rats and percentage of animals disrupted was reported at a dose 4.68 (umol/kg),(number of animals = 10); assay type: functional
# [33] = test system: Rattus norvegicus; experiment: Hallucinogenic property was determined in groups of MDMA trained rats and percentage of animals disrupted was reported at a dose 2.34 (umol/kg), (number of animals = 8); assay type: functional
# [34] = test system: Rattus norvegicus; experiment: Tested for stimulus generation in rats trained to discriminate +/-MDMA from saline at 1.17 (umol/kg), (number of animals = 6); assay type: functional
# [35] = test system: Rattus norvegicus; experiment: Hallucinogenic property was determined in groups of MDMA trained rats and percentage of animals disrupted was reported at a dose 4.68 (umol/kg), (number of animals = 10); assay type: functional
# [36] = test system: Rattus norvegicus; experiment: Hallucinogenic property was determined in groups of MDMA trained rats and percentage of animals disrupted was reported at 18.72 (umol/kg),(number of animals = 5); assay type: functional
# [37] = test system: Rattus norvegicus; experiment: Hallucinogenic property was determined in groups of MDMA trained rats and percentage of animals disrupted was reported at 28.08 (umol/kg),(number of animals = 4); assay type: functional
# [38] = test system: Rattus norvegicus; experiment: Tested for disruption in more than 50% rats trained to discriminate LSD from saline at a dose 18.72 (umol/kg) (no. of animals =5); assay type: functional
# [39] = test system: Rattus norvegicus; experiment: Tested for stimulus generation in rats trained to discriminate LSD from saline at a dose 2.34 (umol/kg),(number of animals = 13); assay type: functional
# [40] = test system: Rattus norvegicus; experiment: Tested for stimulus generation in rats trained to discriminate LSD from saline at a dose 4.68 (umol/kg),(number of animals = 10); assay type: functional
# [41] = test system: Rattus norvegicus; experiment: Hallucinogenic property was determined in groups of MDMA trained rats and percentage of animals disrupted was reported at a dose 1.17 (umol/kg), (number of animals =6); assay type: functional
# [42] = test system: Rattus norvegicus; experiment: Tested for stimulus generation in rats trained to discriminate LSD from saline at a dose 1.17 (umol/kg),(number of animals = 10); assay type: functional
# [43] = test system: Rattus norvegicus; experiment: Hallucinogenic property was determined in groups of LSD trained rats and percentage of animals disrupted was reported at 2.34 (umol/kg),(number of animals = 13); assay type: functional
# [44] = test system: Rattus norvegicus; experiment: Tested for stimulus generation in rats trained to discriminate +/-MDMA from saline at 2.34 (umol/kg), (number of animals = 8); assay type: functional
# [45] = test system: Rattus norvegicus; experiment: Hallucinogenic property was determined in groups of LSD trained rats and percentage of animals disrupted was reported at a dose 18.72 (umol/kg),(number of animals = 5); assay type: functional
# [46] = test system: Rattus norvegicus; experiment: Hallucinogenic property was determined in groups of LSD trained rats and percentage of animals disrupted was reported at a dose 1.17 (umol/kg),(number of animals = 10); assay type: functional
# [47] = test system: Rattus norvegicus; experiment: Tested for stimulus generation in rats trained to discriminate +/-MDMA from saline at 18.72 (umol/kg),(number of animals = 5); assay type: functional
# [48] = test system: Rattus norvegicus; experiment: Tested for stimulus generation in rats trained to discriminate LSD from saline at a dose 9.36 (umol/kg), (number of animals = 10); assay type: functional
# [49] = test system: Rattus norvegicus; experiment: Hallucinogenic property was determined in groups of MDMA trained rats and percentage of animals disrupted was reported at a dose 9.36 (umol/kg), (number of animals = 9); assay type: functional
# [50] = test system: Rattus norvegicus; experiment: Hallucinogenic property was determined in groups of LSD trained rats and percentage of animals disrupted was reported at a dose 9.36 (umol/kg),(number of animals = 10); assay type: functional
structure (smiles),measurement,setting,value
NC1CCc2cc3c(cc2C1)OCO3 (stereo not given),D,[1],11%
same,D,[2],50%
same,Monoamine level,[3],262 pg/mg
same,Kd,[4],0.102 nM
same,Monoamine level,[5],484 pg/mg
same,SDL,[6],63%
same,D,[7],67%
same,Bmax,[8],778 fM/g
same,Monoamine level,[9],367 pg/mg
same,D,[10],47%
same,SDL,[11],38%
same,SDL,[12],50%
same,Monoamine level,[13],256 pg/mg
same,Monoamine level,[14],370 pg/mg
same,Monoamine level,[15],151 pg/mg
same,SDL,[16],25%
same,Kd,[17],0.118 nM
same,SDL,[18],13%
same,Monoamine level,[19],356 pg/mg
same,D,[20],64%
same,Monoamine level,[21],213 pg/mg
same,D,[22],27%
same,D,[23],11%
same,D,[24],27%
same,SDL,[25],88%
same,Bmax,[26],964 fM/g
same,SDL,[27],63%
same,D,[28],0%
same,Monoamine level,[29],549 pg/mg
NC1Cc2ccc3c(c2C1)OCO3 (stereo not given),SDL,[30],25%
same,SDL,[31],13%
same,D,[32],20%
same,D,[33],13%
same,SDL,[34],0%
same,D,[35],20%
same,D,[36],0%
same,D,[37],50%
same,SDL,[38],0%
same,SDL,[39],25%
same,SDL,[40],13%
same,D,[41],0%
same,SDL,[42],38%
same,D,[43],44%
same,SDL,[44],29%
same,D,[45],100%
same,D,[46],20%
same,SDL,[47],0%
same,SDL,[48],25%
same,D,[49],11%
same,D,[50],20%
